# Measured values from ChEMBL document CHEMBL6120978, “Anticancer activity of salinomycin quaternary phosphonium salts” (Eur J Med Chem, 2025).
# Calls of active or inactive are those of the source. The rule behind the calls is not given here.
# Legend:
# [1] = Selectivity index, ratio of IC50 for cytotoxicity against human HaCaT cells to IC50 for cytotoxicity against human SW620 cells; type: toxicity, cell-based; settings: HaCaT cells versus SW620 cells, read-out: Ratio IC50
# SW480 = assay: Cytotoxicity against human SW480 cells incubated for 72 hrs by MTT assay; type: functional, cell-based; settings: SW480, 72 h
# A549 [2] = assay: Induction of apoptosis in human A549 cells assessed as viable cells at IC50 incubated for 72 hrs by Annexin V-FITC staining based flow cytometry analysis (reference value: 95.49 %); type: functional
# Staphylococcus aureus [3] = assay: Antimicrobial activity against Staphylococcus aureus ATCC 25923 incubated for 18 hrs by twofold microdilution method; type: functional
# [4] = Cytotoxicity against chinese hamster V79 cells incubated for 72 hrs by MTT assay; type: toxicity, cell-based, Cricetulus griseus
# PC-3 = assay: Cytotoxicity against human PC-3 cells incubated for 72 hrs by MTT assay; type: functional, cell-based; settings: PC-3, 72 h
# MDA-MB-231 [5] = assay: Cytotoxicity against human MDA-MB-231 cells incubated for 72 hrs by MTT assay; type: functional, cell-based; settings: MDA-MB-231, 72 h
# A549 [6] = assay: Induction of apoptosis in human A549 cells assessed as early apoptotic cells at IC50 incubated for 72 hrs by Annexin V-FITC staining based flow cytometry analysis (reference value: 1.68 %); type: functional
# A549 [7] = assay: Induction of ROS generation of human A549 cells at IC50 incubated for 6 hrs by CellROX Green staining based spectrofluorometer analysis; type: functional, cell-based
# [8] = Selectivity index, ratio of IC50 for cytotoxicity against human HaCaT cells to IC50 for cytotoxicity against human PC-3 cells; type: toxicity, cell-based; settings: HaCaT cells versus PC-3 cells, read-out: Ratio IC50
# [9] = Cytotoxicity against human HaCaT cells incubated for 72 hrs by MTT assay; type: toxicity, cell-based
# [10] = Selectivity index, ratio of IC50 for cytotoxicity against chinese hamster V79 cells to IC50 for cytotoxicity against human SW480 cells; type: toxicity, cell-based; settings: V79 cells versus SW480 cells, read-out: Ratio IC50
# [11] = Selectivity index, ratio of IC50 for cytotoxicity against chinese hamster V79 cells to IC50 for cytotoxicity against human PC-3 cells; type: toxicity, cell-based; settings: V79 cells versus PC-3 cells, read-out: Ratio IC50
# Pseudomonas aeruginosa = assay: Antimicrobial activity against Pseudomonas aeruginosa ATCC 15442 incubated for 18 hrs by twofold microdilution method; type: functional
# A549 [12] = assay: Induction of apoptosis in human A549 cells assessed as necrotic cells at IC50 incubated for 72 hrs by Annexin V-FITC staining based flow cytometry analysis (reference value: 0.97 %); type: functional
# [13] = Selectivity index, ratio of IC50 for cytotoxicity against human HaCaT cells to IC50 for cytotoxicity against human SW480 cells; type: toxicity, cell-based; settings: HaCaT cells versus SW480 cells, read-out: Ratio IC50
# [14] = system: Staphylococcus epidermidis; assay: Antimicrobial activity against Staphylococcus epidermidis ATCC 35984 incubated for 18 hrs by twofold microdilution method; type: functional
# [15] = Selectivity index, ratio of IC50 for cytotoxicity against chinese hamster V79 cells to IC50 for cytotoxicity against human A549 cells; type: toxicity, cell-based; settings: V79 cells versus A549 cells, read-out: Ratio IC50
# A549 [16] = assay: Cytotoxicity against human A549 cells incubated for 72 hrs by MTT assay; type: functional, cell-based; settings: A549, 72 h
# Escherichia coli = assay: Antimicrobial activity against Escherichia coli ATCC 25922 incubated for 18 hrs by twofold microdilution method; type: functional
# A549 [17] = assay: Induction of apoptosis in human A549 cells assessed as late apoptotic cells at IC50 incubated for 72 hrs by Annexin V-FITC staining based flow cytometry analysis (reference value: 1.86 %); type: functional
# Staphylococcus aureus [18] = assay: Antimicrobial activity against Staphylococcus aureus NCTC 4163 incubated for 18 hrs by twofold microdilution method; type: functional
# Mitochondrial membrane [19] = assay: Induction of mitochondrial membrane potential loss in human MDA-MB-231 cells assessed as green fluorescence at IC50 incubated for 48 hrs MitoTracker Green FM staining based flow cytometry analysis (reference value: 8.86 %); type: cell membranes
# A549 [20] = assay: Effect on mitochondrial function in human A549 cells assessed as change in mean fluorescence intensity at IC50 incubated for 48 hrs by MitoTracker Red CMXRos staining based flow cytometry analysis; type: functional, cell-based
# A549 [21] = assay: Effect on mitochondrial mass in human A549 cells assessed as increase in mean fluorescence intensity at IC50 incubated for 48 hrs by MitoTracker Green FM staining based flow cytometry analysis; type: functional, cell-based
# [22] = Selectivity index, ratio of IC50 for cytotoxicity against chinese hamster V79 cells to IC50 for cytotoxicity against human SW620 cells; type: toxicity, cell-based; settings: V79 cells versus SW620 cells, read-out: Ratio IC50
# MDA-MB-231 [23] = assay: Induction of apoptosis in human MDA-MB-231 cells assessed as late apoptotic cells at IC50 incubated for 72 hrs by Annexin V-FITC staining based flow cytometry analysis (reference value: 3.07 %); type: functional
# Mitochondrial membrane [24] = assay: Induction of mitochondrial membrane potential loss in human MDA-MB-231 cells assessed as red fluorescence at IC50 incubated for 48 hrs MitoTrackerRed CMXRos staining based flow cytometry analysis (reference value: 91.1 %); type: cell membranes
# A549 [25] = assay: Induction of cell cycle arrest in human A549 cells assessed as change in cell population at IC50 incubated for 24 hrs by propidium iodide staining based flow cytometry analysis; type: functional
# [26] = Selectivity index, ratio of IC50 for cytotoxicity against chinese hamster V79 cells to IC50 for cytotoxicity against human MDA-MB-231 cells; type: toxicity, cell-based; settings: V79 cells versus MDA-MB-231 cells, read-out: Ratio IC50
# Staphylococcus aureus [27] = assay: Antimicrobial activity against Staphylococcus aureus ATCC 29213 incubated for 18 hrs by twofold microdilution method; type: functional
# MDA-MB-231 [28] = assay: Induction of apoptosis in human MDA-MB-231 cells assessed as viable cells at IC50 incubated for 72 hrs by Annexin V-FITC staining based flow cytometry analysis (reference value: 91.53 %); type: functional
# MDA-MB-231 [29] = assay: Induction of ROS generation of human MDA-MB-231 cells at IC50 incubated for 6 hrs by CellROX Green staining based spectrofluorometer analysis; type: functional, cell-based
# Mitochondrial membrane [30] = assay: Induction of mitochondrial membrane potential loss in human A549 cells assessed as red fluorescence at IC50 incubated for 48 hrs MitoTrackerRed CMXRos staining based flow cytometry analysis (reference value: 91.1 %); type: cell membranes
# MDA-MB-231 [31] = assay: Effect on mitochondrial mass in human MDA-MB-231 cells assessed as increase in mean fluorescence intensity at IC50 incubated for 48 hrs by MitoTracker Green FM staining based flow cytometry analysis; type: functional, cell-based
# SW-620 = assay: Cytotoxicity against human SW620 cells incubated for 72 hrs by MTT assay; type: functional, cell-based; settings: SW-620, 72 h
# [32] = system: Staphylococcus epidermidis; assay: Antimicrobial activity against Staphylococcus epidermidis ATCC 12228 incubated for 18 hrs by twofold microdilution method; type: functional
# MDA-MB-231 [33] = assay: Induction of apoptosis in human MDA-MB-231 cells assessed as early apoptotic cells at IC50 incubated for 72 hrs by Annexin V-FITC staining based flow cytometry analysis (reference value: 4.23 %); type: functional
# [34] = Selectivity index, ratio of IC50 for cytotoxicity against human HaCaT cells to IC50 for cytotoxicity against human A549 cells; type: toxicity, cell-based; settings: HaCaT cells versus A549 cells, read-out: Ratio IC50
# Staphylococcus aureus [35] = assay: Antimicrobial activity against Staphylococcus aureus ATCC 6538 incubated for 18 hrs by twofold microdilution method; type: functional
# Mitochondrial membrane [36] = assay: Induction of mitochondrial membrane potential loss in human A549 cells assessed as green fluorescence at IC50 incubated for 48 hrs MitoTracker Green FM staining based flow cytometry analysis (reference value: 8.93 %); type: cell membranes
# [37] = Selectivity index, ratio of IC50 for cytotoxicity against human HaCaT cells to IC50 for cytotoxicity against human MDA-MB-231 cells; type: toxicity, cell-based; settings: HaCaT cells versus MDA-MB-231 cells, read-out: Ratio IC50
# MDA-MB-231 [38] = assay: Induction of apoptosis in human MDA-MB-231 cells assessed as necrotic cells at IC50 incubated for 72 hrs by Annexin V-FITC staining based flow cytometry analysis (reference value: 1.17 %); type: functional
# A549 [39] = assay: Induction of mitochondrial respiration in human A549 cells assessed as decrease in oxygen consumption rate at 3 uM by Oxygraph-2K system; type: functional, cell-based
# Lipid bilayer [40] = assay: Induction of ionic transport in azolectin bilayer membrane assessed as irregular disturbance in membrane permeability in presence of HEPES buffer by electrophysiology technique
# A549 [41] = assay: Induction of mitochondrial respiration in human A549 cells assessed as fold increase in oxygen consumption rate at 1 uM by Oxygraph-2K system; type: functional
# Lipid bilayer [42] = assay: Induction of current generation in azolectin bilayer membrane in presence of HEPES buffer by electrophysiology technique
# Lipid bilayer [43] = assay: Induction of ionic transport in azolectin bilayer membrane assessed as membrane rupture in presence of HEPES buffer by electrophysiology technique
# Lipid bilayer [44] = assay: Induction of ionic transport in azolectin bilayer membrane assessed as specific channel-like structure formation in presence of HEPES buffer by electrophysiology technique
smiles,measurement,setting,value
CC[C@@H](C(=O)[C@@H](C)[C@@H](O)[C@H](C)[C@@H]1O[C@@H]([C@@H](CC)C(=O)OCc2ccccc2)CC[C@@H]1C)[C@H]1O[C@]2(C=C[C@@H](O)[C@]3(CC[C@@](C)([C@H]4CC[C@](O)(CC)[C@H](C)O4)O3)O2)[C@H](C)C[C@@H]1C,selectivity ratio,[1],1
same,IC50,SW480,3.48 µM
same,Activity,A549 [2],84.65%
same,MIC,Staphylococcus aureus [3],64 µg/mL
same,IC50 at 72 h,[4],5.83 µM
same,IC50,PC-3,8.79 µM
same,IC50,MDA-MB-231 [5],16.5 µM
same,Activity,A549 [6],10.57%
same,Activity,A549 [7],Active; Slight Insignificant Increase In Ros Level Was Observed
same,selectivity ratio,[8],0.9
same,IC50 at 72 h,[9],8 µM
same,selectivity ratio,[10],1.7
same,selectivity ratio,[11],0.7
same,MIC,Pseudomonas aeruginosa,> 256 µg/mL
same,Activity,A549 [12],2.02%
same,selectivity ratio,[13],2.3
same,MIC,[14],> 256 µg/mL
same,selectivity ratio,[15],0.8
same,IC50,A549 [16],7.52 µM
same,MIC,Escherichia coli,> 256 µg/mL
same,Activity,A549 [17],2.76%
same,MIC,Staphylococcus aureus [18],64 µg/mL
same,Activity,Mitochondrial membrane [19],19.6%
same,Activity,A549 [20],inactive
same,Activity,A549 [21],Active; Slight Increase In Mfi Is Observed
same,selectivity ratio,[22],0.8
same,Activity,MDA-MB-231 [23],7.41%
same,Activity,Mitochondrial membrane [24],79.7%
same,Activity,A549 [25],inactive
same,selectivity ratio,[26],0.3
same,MIC,Staphylococcus aureus [27],64 µg/mL
same,Activity,MDA-MB-231 [28],83.92%
same,Activity,MDA-MB-231 [29],Active; Slight Insignificant Increase In Ros Level Was Observed
same,Activity,Mitochondrial membrane [30],74.5%
same,Activity,MDA-MB-231 [31],Active; Slight Increase In Mfi Is Observed
same,IC50,SW-620,7.77 µM
same,MIC,[32],64 µg/mL
same,Activity,MDA-MB-231 [33],6.5%
same,selectivity ratio,[34],1.1
same,MIC,Staphylococcus aureus [35],32 µg/mL
same,Activity,Mitochondrial membrane [36],25.5%
same,selectivity ratio,[37],0.5
same,Activity,MDA-MB-231 [38],2.17%
CC[C@@H](C(=O)[C@@H](C)[C@@H](O)[C@H](C)[C@@H]1O[C@@H]([C@@H](CC)C(=O)OCCCC[P+](c2ccc(C)cc2)(c2ccc(C)cc2)c2ccc(C)cc2)CC[C@@H]1C)[C@H]1O[C@]2(C=C[C@@H](O)[C@]3(CC[C@@](C)([C@H]4CC[C@](O)(CC)[C@H](C)O4)O3)O2)[C@H](C)C[C@@H]1C.[Br-],selectivity ratio,[1],2
same,IC50,SW480,0.44 µM
same,MIC,Staphylococcus aureus [3],4 µg/mL
same,IC50 at 72 h,[4],3.77 µM
same,Activity,A549 [39],inactive
same,IC50,PC-3,2.21 µM
same,IC50,MDA-MB-231 [5],0.83 µM
same,selectivity ratio,[8],0.5
same,IC50 at 72 h,[9],1.02 µM
same,selectivity ratio,[10],8.6
same,selectivity ratio,[11],1.7
same,MIC,Pseudomonas aeruginosa,> 256 µg/mL
same,selectivity ratio,[13],2.3
same,MIC,[14],4 µg/mL
same,selectivity ratio,[15],4.7
same,IC50,A549 [16],0.81 µM
same,MIC,Escherichia coli,> 256 µg/mL
same,Activity,Lipid bilayer [40],inactive
same,MIC,Staphylococcus aureus [18],2 µg/mL
same,selectivity ratio,[22],7.5
same,selectivity ratio,[26],4.5
same,MIC,Staphylococcus aureus [27],4 µg/mL
same,IC50,SW-620,0.5 µM
same,MIC,[32],4 µg/mL
same,fold change (FC),A549 [41],2.5
same,Activity,Lipid bilayer [42],Dose-dependent-effect
same,selectivity ratio,[34],1.3
same,MIC,Staphylococcus aureus [35],2 µg/mL
same,Activity,Lipid bilayer [43],inactive
same,Activity,Lipid bilayer [44],inactive
same,selectivity ratio,[37],1.2
